The text below walks through data of PMC9271048, “Probing strigolactone perception mechanisms with rationally designed small-molecule agonists stimulating germination of root parasitic weeds” (Nature Communications, 2022).

For orientation: IC50 means the concentration that inhibits the measured activity by half. Broadly, the EC50 is the concentration that produces a half-maximal response.

For assay [1], the target named is T1, ShHTL7 (Striga hermonthica, UniProt A0A0M3PNA2). The assay is described as follows: biochemical. It counts as binding. As for the experimental part:
We used a sensitive, high-throughput Surface plasmon resonance (SPR) method to examine the binding affinities of the 51 candidates to the recombinant ShHTL7 protein, which was immobilized on the CM5 sensor chip. rac-GR24 was used as a positive control.
The interactions of small molecules with recombinant ShHTL7 were evaluated using the Biacore T200 system (GE Healthcare, USA) at 25 °C[47]. The purified ShHTL7 protein was immobilized on a CM5 sensor chip using the standard amine coupling procedure. […] PBS-P (10 mM phosphate buffer, 2.7 mM KCl, 137 mM NaCl, 0.05% Surfactant P20) containing 0.5% DMSO was used as the running buffer. For the screening experiments, candidates with different structures at 50 μM in the running buffer were injected individually at a flow rate of 30 μL min^−1. For binding affinity studies, compounds with different concentrations in running buffer were used. During the experiments, both the contact and dissociation times were set as 1 min. Data analysis was performed using the Biacore Evaluation Software (T200 Version 2.0). The affinity values (KD) were obtained by the kinetics analysis or the steady-state affinity method.

Assay [2] deals with P. aegyptiaca seeds. The experiment in a line: P. aegyptiaca seed germination assay. It counts as in vivo, Phelipanche aegyptiaca. Also noted: P. aegyptiaca germination EC50 values, source data average: unit not given here; P. aegyptiaca seed germination activity, source data average: unit of the concentration uncertain. The note with it: for P. aegyptiaca germination(%): Supplementary Table 1, compounds tested at 10 μM, means ± SD, n = 3; for P. aegyptiaca seed germination activity, source data average: Supplementary Fig. 9b; for P. aegyptiaca germination EC50 values, source data average: source data of Fig. 2c and Supplementary Fig. 8b, average of 3. As for the experimental part: P. aegyptiaca seeds were harvested from Xinjiang province, China in 2017. The seeds were surface sterilized using 1% NaClO solution for 2 min and then washed with distilled water six times. For seed germination assay, about 20 pieces of glass fiber-filter paper discs (15 mm diameter, Whatman GF/B) were placed separately on two layers of filter papers (9 cm diameter, Whatman) in a Petri dish. Five milliliters of distilled water was added to each Petri dish to wet the papers. Approximately 40–90 sterilized seeds were spread onto each glass fiber-filter paper disc. After the seeds were conditioned in the dark at 25 °C for 4 days[48], glass fiber-filter paper discs were blotted dry on filter papers (9 cm) and transferred to the wells of 24-well cell culture plates. The testing compounds were dissolved in acetone and diluted with H2O (VH2O/Vacetone = 999/1) just before use[49]. rac-GR24 and 1‰ acetone solution were used as positive and negative controls, respectively. One hundred microliters of the test solution was added to each well of the plates, and all treatments were performed in three biological repeats. The plates were sealed and incubated in the dark at 25 °C for a week. The experiments were performed at least three times. The germinated seeds were observed by using an electronic magnifier at ×20 magnification.

Assay [3] addresses T1, ShHTL7. The assay is described as follows: Competitive inhibition of ShHTL7 with Yoshimulactone Green (YLG) as substrate. Type of assay: biochemical. As for the experimental part: Based on the structural feature of the lead compound 2h, we selected three regions to perform further modification (Supplementary Fig. 6), to try to further improve bioactivity. Insertion of a carbonyl group between the bicyclo[2.2.1]hept-5-en-2-yl group and the piperazine ring was detrimental to binding affinity (Supplementary Fig. 6, region A). Removal of an oxygen atom in region B was found unfavorable to binding affinity as well. Therefore, we focused on modifying the benzene ring (region C) for 2h. A series of compounds with different groups at region C was synthesized (Supplementary Scheme 1). […] As SPR just measures the binding ability, another independent assay by using Yoshimulactone Green (YLG) as the fluorescent substrate was performed to determine the half-maximal inhibitory concentration (IC50) of these compounds against ShHTL7[22].
The excitation and emission wavelengths of YLG are 480 and 520 nm, respectively. We used a fluorescence spectrophotometer (CARY Eclipse) to detect the fluorescence intensity change of YLG during the enzymatic hydrolysis assay process. All the testing compounds and YLG were dissolved in DMSO and prepared as stock solutions just before use. […] The changes of fluorescence at 520 nm of each well were recorded every 1 min for 30 min. Using the reaction mixture without adding enzyme and tested compounds as the background control. After subtracting the background hydrolysis, a linear fluorescence increase in 8 min was used for further inspection. The IC50 values were determined via fitting relative inhibition percentages with the varying concentrations of compounds in Microsoft Excel.

The mark [4] stands for this setting: recombinant ShHTL7 immobilized on CM5 chip, 25 °C, read-out: KD (SPR).
Where [5] appears, read: YLG used as the substrate, means ± SD, n = 3, read-out: IC50 (Supplementary Table 1).
Setting [6] is: Supplementary Table 7, binding affinities between ShHTL7 and agonists by SPR, read-out: KD/μM.
The mark [7] stands for this setting: wild-type ShHTL7, average of 3, source data of Fig. 2a,b, Supplementary Figs. 8a, 9a, 20b, read-out: IC50, competitive ShHTL7 inhibition (YLG), source data average.

Molecules are shown by their SMILES. Where two headings read alike, the source gives them in different places.

T1 sequence (A0A0M3PNA2 entry or part of it): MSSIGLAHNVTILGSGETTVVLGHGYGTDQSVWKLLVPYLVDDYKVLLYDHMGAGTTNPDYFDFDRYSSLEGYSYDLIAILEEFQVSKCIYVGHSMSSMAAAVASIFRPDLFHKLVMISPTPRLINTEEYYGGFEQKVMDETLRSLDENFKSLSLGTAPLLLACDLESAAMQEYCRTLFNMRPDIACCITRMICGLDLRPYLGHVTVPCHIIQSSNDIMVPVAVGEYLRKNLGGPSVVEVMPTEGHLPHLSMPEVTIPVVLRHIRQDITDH

With `O=C(C(c1ccccc1)c1ccccc1)N1CCN(CC2CC3C=CC2C3)CC1` (stereo not drawn) [2d], the Kd in assay [1] worked out at 5.22 ± 0.66 µM.
With `O=C(c1ccco1)N1CCN(CC2CC3C=CC2C3)CC1` (stereo not drawn) [2a], in assay [1] (setting [4]), the Kd stood at 12.8 ± 0.6 µM.
As for `O=C(COc1ccc(C(F)(F)F)cc1)N1CCN(CC2CC3C=CC2C3)CC1` (stereo not drawn) [3n], the “P. aegyptiaca germination(%)” value in assay [2] is given as 47.8%. The IC50 in assay [3] (setting [5]) came to 12.8 ± 2.97 µM.
Regarding `CCCCOc1ccc(S(=O)(=O)N2CCN(C(=O)OC3C=C(C)C(=O)N3C)CC2)cc1` (stereo not drawn) [4j], the entries for the “P. aegyptiaca seed germination activity, source data average” value in assay [2] (0.1 (unit uncertain) as printed), in assay [2] (1 (unit uncertain) as printed) and in assay [2] (10 (unit uncertain) as printed) were 4.315%, 14.0733% and 45.7326%, respectively. Also, in assay [1] (setting [6]), the Kd amounted to 18.1 ± 6.29 µM. Further, in assay [3] (setting [7]), the IC50 came out at 105 µM.
For `Cc1ccccc1OCC(=O)N1CCN(CC2CC3C=CC2C3)CC1` (stereo not drawn) [3m], the “P. aegyptiaca germination(%)” value in assay [2] was determined as 29.7%. Besides, the IC50 in assay [3] (setting [5]) turned out to be 9.16 ± 1.2 µM.
Take `Cc1cc([N+](=O)[O-])ccc1OCC(=O)N1CCN(CC2CC3C=CC2C3)CC1` (stereo not drawn) [3h]: in assay [2], the “P. aegyptiaca germination(%)” value is on record as 22.0%. Further, in assay [3] (setting [5]), the IC50 worked out at 10 ± 0.59 µM.
Turning to `Cc1cc(Br)ccc1OCC(=O)N1CCN(CC2CC3C=CC2C3)CC1` (stereo not drawn) [3f], in assay [2], the “P. aegyptiaca germination(%)” value stood at 8.3%. In addition, in assay [1], the Kd was found to be 0.18 µM. Besides, the IC50 was 7.45 ± 1.03 µM in assay [3] (IC50 (Supplementary Table 1), YLG used as the substrate, means ± SD, n = 3) and 6.11 µM in assay [3] (IC50, competitive ShHTL7 inhibition (YLG), source data average, wild-type ShHTL7, average of 3, source data of Fig. 2a,b, Supplementary Figs. 8a, 9a, 20b).
In the case of `CC1=CC(OC(=O)N2CCN(C(=O)COc3ccc(F)cc3C)CC2)OC1=O` (stereo not drawn) [4d], the “P. aegyptiaca germination EC50 values, source data average” value in assay [2] came out at 8.181. Further, the Kd in assay [1] (setting [6]) came to 0.82 ± 0.26 µM. Moreover, in assay [3] (setting [7]), the IC50 is 3.78 µM.
In turn, `O=C(c1cccs1)N1CCN(CC2CC=CCC2)CC1` (stereo not drawn) [2b] yielded a Kd in assay [1] of 10.5 ± 0.67 µM.
As for `Cc1cc(Cl)ccc1OCC(=O)N1CCN(CC2CC3C=CC2C3)CC1` (stereo not drawn) [3e], the “P. aegyptiaca germination(%)” value in assay [2] is 7.0%. Moreover, the Kd in assay [1] (setting [4]) was 0.65 µM. In addition, the IC50 in assay [3] (setting [5]) stood at 8.28 ± 1.12 µM.
In the case of `O=C(COc1ccc(Cl)cc1)N1CCN(CC2CC3C=CC2C3)CC1` (stereo not drawn) [3o], the “P. aegyptiaca germination(%)” value in assay [2] came out at 21.4%. For the same compound, in assay [3] (setting [5]), the IC50 worked out at 22 ± 2.43 µM.
Regarding `CS(=O)(=O)c1ccc(OCC(=O)N2CCN(CC3CC4C=CC3C4)CC2)cc1` (stereo not drawn) [3q], the “P. aegyptiaca germination(%)” value in assay [2] worked out at 34.8%. The half-maximal inhibitory concentration (IC50) in assay [3] (setting [5]) was determined as 24.1 ± 6.49 µM.
On the same counts, the results for `Cc1ccc(CCC(=O)N2CCN(CC3CC4C=CC3C4)CC2)cc1` (stereo not drawn) [3r] are 34.2±6.9% and 34.2 ± 6.9 µM.
For `CC1=CC(OC(=O)N2CCN(CC3CC4C=CC3C4)CC2)OC1=O` (stereo not drawn) [4c], in assay [2] (in vivo, read-out: EC50, P. aegyptiaca seed germination), the EC50 was 0.00226 µM. Besides, in assay [2], the “P. aegyptiaca germination EC50 values, source data average” value is recorded as 8.757. Also, the Kd in assay [1] (setting [6]) came to 13.9 ± 2.6 µM. Besides, the IC50 in assay [3] (YLG as substrate, text and Fig. 2, read-out: IC50, competitive ShHTL7 inhibition (YLG assay)) is 4.56 ± 0.78 µM; in assay [3] (setting [7]) it was 4.56 µM.
As to `O=C(COc1ccc2ccccc2c1Br)N1CCN(CC2CC3C=CC2C3)CC1` (stereo not drawn) [3c], in assay [2], the “P. aegyptiaca germination(%)” value came out at 17.1%. The IC50 in assay [3] (setting [5]) is 6.12 ± 0.34 µM.
Take `Cc1ccc(CC(=O)N2CCN(CC3CC4C=CC3C4)CC2)cc1` (stereo not drawn) [3b]: in assay [2], the “P. aegyptiaca germination(%)” value was 8.9%. In addition, the IC50 in assay [3] (setting [5]) was determined as 23.2 ± 1.59 µM.
